From US20240366728A1, “Treatment of Diabetes Mellitus” (Carmot Therapeutics Inc., priority 2023, published 2024) come the findings set out here.

Some results are limits rather than exact numbers.

Experiment [1] addresses T1, mouse GLP-1R (Mus musculus, UniProt O35659).
T1 sequence (O35659 22-463): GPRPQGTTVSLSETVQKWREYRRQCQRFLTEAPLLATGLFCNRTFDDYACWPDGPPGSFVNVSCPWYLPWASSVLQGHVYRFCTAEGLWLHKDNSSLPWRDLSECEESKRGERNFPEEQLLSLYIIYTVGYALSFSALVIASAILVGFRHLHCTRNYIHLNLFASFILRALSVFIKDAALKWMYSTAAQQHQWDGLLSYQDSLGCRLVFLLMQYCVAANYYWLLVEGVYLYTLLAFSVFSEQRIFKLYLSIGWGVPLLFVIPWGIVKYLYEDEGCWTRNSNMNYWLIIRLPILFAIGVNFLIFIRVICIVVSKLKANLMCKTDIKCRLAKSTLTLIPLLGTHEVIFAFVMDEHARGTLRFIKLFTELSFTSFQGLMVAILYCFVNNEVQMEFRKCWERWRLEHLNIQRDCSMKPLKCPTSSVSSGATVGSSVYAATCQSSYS
Kind of experiment: β-arrestin-2 recruitment (NanoBiT), mouse GLP-1R. The experiment is classed as cell-based. The protocol:
(§1) To measure GLP-1R and GIPR-mediated β-arrestin recruitment, we utilized Promega's NanoBiT® technology or NanoLuc® Binary Technology. The NanoLuc luciferase is split into two subunits, called LgBiT and SmBIT, which are expressed in HEK293 cells as fusion proteins at the C-terminus of GLP-IR or GIPR and the N-terminus of β-arrestin-2. […] The next day, the media was removed and replaced with […] 1:100 dilution of Nano-Glo® Live Cell Substrate in Opti-MEM™ and equilibrated to room temperature for ten minutes. Background luminescence was measured before 10 nL compound was added using an ECHO Acoustic Liquid Handler.
(§2) To measure GLP-1R and GIPR-mediated β-arrestin recruitment, Promega's NanoBiT® technology or NanoLuc® Binary Technology were utilized. Both allow for the detection and quantification of protein: protein interactions in live cells (Samms et al., Trends Endocrinol Metab 31:410-21). The NanoLuc luciferase is split into two subunits, called LgBiT and SmBIT, which are expressed in HEK293 cells as fusion proteins at the C-terminus of GLP-1R or GIPR and the N-terminus of β-arrestin-2, respectively. […] The next day, media was removed and replaced with 10 μL 1:100 dilution of Nano-Glo® Live Cell Substrate in Optimem and equilibrated to room temperature for ten minutes. Background luminescence was measured before 10 nL compound was added using an ECHO Acoustic Liquid Handler. Luminescence was measured at 1.5-minute intervals for 30 minutes.

Experiment [2] has as its target T2, mouse GIPR (Mus musculus, UniProt Q0P543).
T2 sequence (Q0P543 19-460): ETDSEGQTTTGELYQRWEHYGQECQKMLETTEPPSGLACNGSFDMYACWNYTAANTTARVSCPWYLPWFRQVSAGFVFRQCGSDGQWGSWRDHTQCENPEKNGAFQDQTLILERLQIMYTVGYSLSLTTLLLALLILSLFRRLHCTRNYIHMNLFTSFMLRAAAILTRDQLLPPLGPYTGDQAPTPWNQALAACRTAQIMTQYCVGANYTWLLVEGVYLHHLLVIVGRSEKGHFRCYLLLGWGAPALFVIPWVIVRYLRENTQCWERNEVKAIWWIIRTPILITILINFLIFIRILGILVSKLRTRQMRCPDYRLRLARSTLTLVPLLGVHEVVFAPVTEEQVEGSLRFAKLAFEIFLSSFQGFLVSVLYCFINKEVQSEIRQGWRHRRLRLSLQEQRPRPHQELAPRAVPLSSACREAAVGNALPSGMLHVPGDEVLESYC
Kind of experiment: β-arrestin-2 recruitment (NanoBiT), mouse GIPR. The class given is cell-based. On the procedure: as §1, §2
(In general: Recruitment of arrestin is a read-out of receptor activation apart from second messengers.)

The target in a further experiment is T3, human GIPR (Homo sapiens, UniProt P48546).
T3 sequence (P48546 22-466): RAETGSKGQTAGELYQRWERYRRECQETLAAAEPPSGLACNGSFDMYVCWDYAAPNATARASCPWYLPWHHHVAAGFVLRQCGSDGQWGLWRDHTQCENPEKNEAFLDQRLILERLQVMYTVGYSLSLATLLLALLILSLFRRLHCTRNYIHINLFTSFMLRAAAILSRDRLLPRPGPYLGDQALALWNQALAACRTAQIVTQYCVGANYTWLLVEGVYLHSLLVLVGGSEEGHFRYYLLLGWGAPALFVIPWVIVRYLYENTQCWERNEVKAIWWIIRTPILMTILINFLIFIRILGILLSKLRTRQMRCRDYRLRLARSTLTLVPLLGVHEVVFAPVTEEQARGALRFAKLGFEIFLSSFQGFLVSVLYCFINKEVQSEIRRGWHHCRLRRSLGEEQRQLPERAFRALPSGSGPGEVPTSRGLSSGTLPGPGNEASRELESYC
Briefly: receptor internalization (Nano-Glo HiBiT), human GIPR. The experiment is classed as cell-based. (In general: HiBiT is a short tag that completes a luciferase, so light tracks the accessible tagged protein.)

The next experiment deals with human GLP-1R (Homo sapiens, UniProt P43220). Briefly: receptor internalization (Nano-Glo HiBiT), human GLP-1R. The class given is cell-based. The arrangement: host or cells: HEK293.
The target in experiment [3] is T1, mouse GLP-1R. Kind of experiment: cAMP accumulation (HitHunter cAMP assay), mouse GLP-1R U2OS cells.
Experiment [4] has as its target T2, mouse GIPR. Briefly: cAMP accumulation (HitHunter cAMP assay), mouse GIPR CHO-K1 cells.

Chain of human GLP-1R (P43220 24-463): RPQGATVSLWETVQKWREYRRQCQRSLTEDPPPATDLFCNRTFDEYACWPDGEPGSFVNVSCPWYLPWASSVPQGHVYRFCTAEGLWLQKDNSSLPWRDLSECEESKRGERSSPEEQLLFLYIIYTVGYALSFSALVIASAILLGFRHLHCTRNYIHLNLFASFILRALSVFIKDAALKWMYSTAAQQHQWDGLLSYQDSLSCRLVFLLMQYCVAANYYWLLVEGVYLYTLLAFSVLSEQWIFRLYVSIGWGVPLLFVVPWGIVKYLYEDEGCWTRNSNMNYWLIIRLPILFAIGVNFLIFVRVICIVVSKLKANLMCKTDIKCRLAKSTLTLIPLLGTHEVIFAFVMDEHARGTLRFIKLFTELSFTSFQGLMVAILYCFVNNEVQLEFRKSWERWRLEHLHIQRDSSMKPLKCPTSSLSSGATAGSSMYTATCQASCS
Method for human GIPR: (§3) GLP-1R and GIPR internalization were measured using Promega's Nano-Glo® HiBit extracellular detection system (Promega Corporation; Madison, WI). Hek293 cells were transiently transfected with HiBiT-tagged hGLP-1R or hGIPR plasmids (Promega Corporation; Madison, WI). Cells were lifted using the TrypLE express enzyme (ThermoFisher Scientific) and plated at 80,000-100,000 cells per well in 96 well plates. Cells were then treated with Nano-Glo HibiT extracellular buffer containing LgBiT protein (1:100), and the Nano-Glo HiBiT extracellular substrate (1:50).
(§4) GLP-1R and GIPR internalization was measured using Promega's Nano-Glo® HiBit extracellular detection system (Promega Corporation; Madison, WI). HEK293 cells were transiently transfected with low quantities of HiBiT-tagged hGLP-1R or hGIPR plasmids (Promega Corporation; Madison, WI). The next day, cells were lifted using TrypLE express enzyme (ThermoFisher Scientific) and plated at 80,000-100,000 cells per well in 96 well plates.
Method for human GLP-1R: as §3, §4

With `CCCCCCCCCCCCCCCC(=O)N[C@@H](CCC(=O)NCCCC[C@H](NC(=O)[C@H](CO)NC(=O)[C@@H]1CCCN1C(=O)[C@@H]1CCCN1C(=O)[C@@H]1CCCN1C(=O)[C@H](C)NC(=O)CNC(=O)[C@H](CO)NC(=O)[C@H](CO)NC(=O)[C@@H]1CCCN1C(=O)CNC(=O)CNC(=O)[C@H](C)NC(=O)[C@H](CC(C)C)NC(=O)[C@H](CC(C)C)NC(=O)[C@H](Cc1c[nH]c2ccccc12)NC(=O)[C@H](CC(N)=O)NC(=O)[C@@H](NC(=O)[C@H](Cc1ccccc1)NC(=O)[C@H](CCC(=O)O)NC(=O)C(C)(C)NC(=O)[C@H](C)NC(=O)[C@H](C)NC(=O)[C@H](CCC(N)=O)NC(=O)[C@H](CCCCN)NC(=O)[C@H](CC(=O)O)NC(=O)[C@H](CC(C)C)NC(=O)[C@H](Cc1ccc(O)cc1)NC(=O)[C@@H](NC(=O)[C@H](CO)NC(=O)[C@H](Cc1ccc(O)cc1)NC(=O)[C@H](CC(=O)O)NC(=O)[C@H](CO)NC(=O)[C@@H](NC(=O)[C@H](Cc1ccccc1)NC(=O)[C@@H](NC(=O)CNC(=O)[C@H](CCC(=O)O)NC(=O)CSCC(=O)NCCN1C(=O)CSC1=O)[C@@H](C)O)[C@@H](C)O)[C@@H](C)CC)C(C)C)C(N)=O)C(=O)O` [CT-859], the “recruitment of β-arrestin-2 to mouse GLP-1R” value on mouse GLP-1R [1] is given as less than 5%. Besides, the “native ligand mediated recruitment of β-arrestin-2 at GLP-1R (in words)” value at mouse GLP-1R [1] (antagonist mode vs GLP-1) is “inhibited”. Further, on mouse GIPR [2] (antagonist mode vs GIP), the “native ligand mediated recruitment of β-arrestin-2 at GIPR (in words)” value is “inhibited”. Also, the “recruitment of β-arrestin-2 to mouse GIPR” value on mouse GIPR [2] (vs GIP) is listed as less than 5%. Further, the “human GIPR surface expression (in words)” value on human GIPR was “stimulating greater surface expression than vehicle”. Further, on human GLP-1R, the “GLP-1R expression after two hours of exposure (in words)” value is listed as “higher versus vehicle-treated cells”. Also, on mouse GLP-1R [3], the “agonist type for cAMP accumulation at mouse GLP-1R (in words)” value is reported as “full agonist”. On mouse GLP-1R [3] (cAMP, mouse GLP-1R), the “times less potent than Liraglutide” value is reported as 12 times and the “times less potent than native ligand GLP-1” value is 113 times. In addition, the “agonist type for cAMP accumulation at mouse GIPR (in words)” value on mouse GIPR [4] was “partial agonist”. In addition, the “times lower potency than GIP” value at mouse GIPR [4] (cAMP, mouse GIPR) worked out at 48 times.

Broadly, the EC50 is the concentration needed to bring the measured effect to its halfway point. In general, Emax refers to the size of the effect at its maximum, as opposed to the concentration needed. In the case of `CCCCCCCCCCCCCCCC(=O)N[C@@H](CCC(=O)NCCCC[C@H](NC(=O)[C@H](CO)NC(=O)[C@@H]1CCCN1C(=O)[C@@H]1CCCN1C(=O)[C@@H]1CCCN1C(=O)[C@H](C)NC(=O)CNC(=O)[C@H](CO)NC(=O)[C@H](CO)NC(=O)[C@@H]1CCCN1C(=O)CNC(=O)CNC(=O)[C@H](C)NC(=O)[C@H](CC(C)C)NC(=O)[C@H](CC(C)C)NC(=O)[C@H](Cc1c[nH]c2ccccc12)NC(=O)[C@H](CC(N)=O)NC(=O)[C@@H](NC(=O)[C@H](Cc1ccccc1)NC(=O)[C@H](CCC(=O)O)NC(=O)C(C)(C)NC(=O)[C@H](C)NC(=O)[C@H](C)NC(=O)[C@H](CCC(N)=O)NC(=O)[C@H](CCCCN)NC(=O)[C@H](CC(=O)O)NC(=O)[C@H](CC(C)C)NC(=O)[C@H](Cc1ccc(O)cc1)NC(=O)[C@@H](NC(=O)[C@H](CO)NC(=O)[C@H](Cc1ccc(O)cc1)NC(=O)[C@H](CC(=O)O)NC(=O)[C@H](CO)NC(=O)[C@@H](NC(=O)[C@H](Cc1ccccc1)NC(=O)[C@@H](NC(=O)CNC(=O)[C@H](CCC(=O)O)NC(=O)CSCC(=O)NCCN1CCCCC1=O)[C@@H](C)O)[C@@H](C)O)[C@@H](C)CC)C(C)C)C(N)=O)C(=O)O` [CT-868], the EC50 at mouse GLP-1R [1] (Table 17, read-out: mGLP-1R β-arrestin-2 EC50) was determined as 21 nM. In addition, the Emax at mouse GLP-1R [1] (read-out: mGLP-1R β-arrestin-2 % Emax, Table 17) was 4.69%; on mouse GIPR [2] (read-out: mGIPR β-arrestin-2 % Emax, Table 17), -1.92%; on human GIPR (Table 17, read-out: hGIPR Internalization % Emax), -11%; at human GLP-1R (Table 17, read-out: hGLP-1R Internalization % Emax), -13%; at mouse GLP-1R [3] (U2OS, read-out: mGLP-1R cAMP (-alb) % Emax), 95%; at mouse GIPR [4] (CHO-K1, read-out: mGIPR cAMP (-alb) % Emax), 36%.
